Laboratory results taken from publication PMC7730206, “2-Deoxy-D-glucose Promotes Buforin IIb-Induced Cytotoxicity in Prostate Cancer DU145 Cells and Xenograft Tumors” (Molecules, 2020).
“Also recorded” adds a separate entry of the source.

What was measured:
[1] = tested on: DU145 cells; experiment: Cell cycle analysis (PI staining, FACS); format: cell-based, human; conditions: 2-DG 2 mM, buforin IIb 2 μM, alone or in combination, 24 h; for S/G2 population: PBS control 46.23%; for G0/G1 population (%G1): PBS control 53.7%
Protocol: Cell cycle analysis was performed using the Cell Cycle Analysis Kit. Briefly, cells were seeded into 6-well culture plates at a density of 3 × 10^5 cells/mL. After treatment with 2-DG (2 mM) and buforin IIb (2 μM) alone or in combination for 24 h, cells were digested by 0.25% trypsin without EDTA, fixed in 70% cold ethanol for 5 h at 4 °C, and then stained with propidium iodide (PI) and RNase A solution for 30 min at 37 °C in the dark. The cell distribution across the cell cycle was analyzed with a FACS Vantage SE flow cytometer.

[2] = tested on: prostate cancer cell line DU145; experiment: CCK-8 cell viability assay, DU145; format: cell-based, human
Protocol: (§1) Cells were seeded in 96-well plates at a density of 1 × 10^5 cells/mL in medium, and then treated with different concentrations of buforin IIb and 2-DG alone or in combination for 24 h. After treatment, 10 μL CCK-8 was added to each well, and the plates were incubated in the dark at 37 °C for 2 h. Absorbance at 450 nm was measured using a […]1 multifunction microplate reader. Each experiment was performed in triplicate, and cell viability was expressed as a percentage of the control. The drug-drug interactions between buforin IIb and 2-DG were evaluated using the combination index (CI) described by Chou and Talalay, and calculated using Compusyn software (Biosoft). CI values < 1, = 1 or > 1 indicated synergy, additivity, or antagonism, respectively.

[3] = tested on: mouse erythrocytes; experiment: Hemolytic activity assay; format: cell-based; conditions: mouse RBCs 4% (v/v), 30 min, 37 °C, absorbance 570 nm; different concentrations
Protocol: The hemolytic assay was conducted using mouse red blood cells (RBCs) as the method described previously. Briefly, erythrocytes were isolated by centrifugation at 1000× g for 10 min, washed three times with PBS, and resuspended at a final concentration of 4% (v/v). After incubating cells with 2-DG and buforin IIb alone or in combination at different concentrations for 30 min at 37 °C, the mixture was centrifuged at 1000× g for 5 min to obtain the supernatant. A volume of 100 μL of supernatant was removed to a new 96-well plate and the absorbance was measured at 570 nm. PBS and 0.1% Triton X-100 were used as agents for 0 and 100% hemolysis, respectively. The percentage of hemolysis was calculated as follows: (Asample − APBS)/(ATritonX-100 − APBS) × 100%, where A is the absorbance. Data are presented as the mean ± standard error of the mean (SEM) of at 4–6 independent experiments.

[4] = tested on: DU145 cells; experiment: EdU incorporation assay (cell proliferation); format: cell-based, human; conditions: buforin IIb 2 μM, alone or in combination, 24 h
Protocol: Cultured cells were plated in 12-well plates at a density of 2 × 10^5 cells/mL and treated with buforin IIb (2 μM) and 2-DG (2 mM) alone and in combination for 24 h. Cells were then incubated with in medium containing EdU (10 μM) for 2 h, fixed with 4% paraformaldehyde for 15 min, and permeabilized with 0.2% Triton X-100 for 15 min. Cells were then incubated with EdU staining cocktail at room temperature in the dark for 30 min. After washing with PBS, cell nuclei were stained with DAPI at a concentration of 10 μg/mL for 15 min. More than five images of each well were acquired by fluorescence microscope, and the percentage of EdU-positive cells was evaluated.

[5] = tested on: DU145 cells; experiment: ROS assay (H2DCFDA, flow cytometry); format: cell-based, human; conditions: 2 mM 2-DG 12 h, with or without 2 μM buforin IIb 6 h; combination compared with 2 μM buforin alone, p < 0.001
Protocol: Intracellular ROS level was measured by detecting the fluorescence intensity of the peroxide sensitive fluorescent probe H2DCFDA. Briefly, DU145 cells (1 × 10^5 cells/mL) were seeded into 24-well plates and treated with 2-DG (2 mM) for 12 h, then treated with or without buforin IIb (2 μM) for 6 h, followed by incubation with 10 μM H2DCFDA for 30 min in the dark. The fluorescence intensity was measured at 488 nm by flow cytometry to evaluate the production of ROS.

[6] = tested on: DU145 cells; experiment: Intracellular ATP level; format: cell-based, human; conditions: 2 μM buforin IIb 12 h
Protocol: (§2) Cells were seeded at approximately 3 × 10^5 cells/mL in 6-well plates and treated with 2-DG (2 mM) alone for 24 h and buforin IIb alone (2 μM) or both for 12 h. After centrifugation, the culture medium and cells were collected to estimate the L-lactate and ATP content using the ATP content assay kit (Solarbio, Beijing, China) and L-lactate assay kit (Jiancheng Bioengineering, Nanjing, China) according to the manufacturer’s protocol. […] The collected cells were subjected to ultrasonic disruption and centrifuged at 8000× g for 10 min at 4 °C to collect the supernatant for intracellular ATP detection. Creatine kinase catalyzes the production of phosphocreatine from creatine and ATP. The level of ATP was determined by detecting the phosphocreatine content though the colorimetric method of phosphomolybdic acid at 700 nm. Six replicates were performed for each group, and the experiments were repeated three times to confirm the results.

[7] = tested on: normal prostatic epithelial WPMY-1 cell line; experiment: CCK-8 cell viability assay, WPMY-1; format: cell-based
Protocol: as §1

[8] = tested on: DU145 xenograft tumors; experiment: DU145 xenograft tumor experiment; format: in vivo, BALB/c nude mice; conditions: buforin IIb 5 mg/kg tail vein, 2-DG 400 mg/kg oral gavage, days 1, 2, 3, 6, 9; tumor weight on day 12 vs PBS; n = 5 per group
Excerpt: Male BALB/c nude mice (4-6 weeks old) were obtained from the Model Animal Research Center of Nanjing University. All of the animal experiments were approved by the Institutional Animal Care and Use Committee (IACUC) of the Nanjing Normal University and Jiangsu Association for Laboratory Animal Science. BALB/c nude mice were subcutaneously injected with 3 × 10^6 DU145 cells in the right axillary region. When the tumor volume reached 75 mm^3, nude mice were randomly divided into the following four groups (n = 5 per group): PBS, buforin IIb (5 mg/kg), 2-DG (400 mg/kg), and combination group (5 mg/kg buforin IIb + 400 mg/kg 2-DG). Buforin IIb was injected through the tail vein of mice and 2-DG was administered via oral gavage on days 1, 2, 3, 6, and 9. Body weight and tumor volume were measured three times a week. Mice were sacrificed by isoflurane inhalation followed by cervical dislocation. The tumors were excised and assessed. Tumor volume was calculated using the formula V = ab^2/2, where 'a' and 'b' are the tumor dimensions at the longest and widest points, respectively. On day 12, tumor tissues were collected and weighed. […] PCNA and TUNEL positive cells were quantified by measuring pixels in 10 consecutive fields at 40× magnification. Positive cells were scored manually.

[9] = tested on: DU145 cells; experiment: Annexin V-FITC/PI apoptosis flow cytometry; format: cell-based, human
Protocol: DU145 cells were seeded (3 × 10^5 cells/mL) into 6-well plates and treated with buforin IIb (2 μM) and 2-DG (2 mM) alone and in combination for 24 h. After collecting and washing with PBS, the cells were re-suspended in 500 μL of binding buffer, stained with FITC-conjugated Annexin V and PI, and incubated on ice in the dark for 10 min. The stained cells were analyzed by flow cytometry, and the percentage of apoptotic cells was calculated using Cell Quest software.

[10] = tested on: Bcl-2, Bak, Bax, cytochrome c, caspase 3 in DU145 cells; experiment: Western blot of apoptosis-related proteins; format: cell-based, human; conditions: 2 mM 2-DG 12 h and/or 2 μM buforin IIb 12 h
Protocol: DU145 cells were treated with 2-DG (2 mM) for 12 h, then treated with or without buforin IIb (2 μM) for 12 h. The cells were lysed on ice for 30 min in RIPA lysis buffer, and the lysates were centrifuged at 12,000× g for 10 min at 4 °C. The supernatant was collected, separated by 12% sodium dodecyl sulfate-polyacrylamide gel electrophoresis (SDS-PAGE), and transferred onto a polyvinylidene difluoride (PVDF) membrane. After blocking with 5% skim milk in PBS, the PVDF membrane incubated with primary antibodies against Bcl-2, Bak, Bax, cytochrome C, caspase 3, and β-actin overnight at 4 °C, followed by incubating with appropriate secondary antibodies. After washing, bands were visualized by using ECL detection system according to the manufacturer’s instructions.

[11] = tested on: DU145 cells; experiment: L-lactate production; format: cell-based, human; conditions: 2 mM 2-DG 24 h; 2 μM buforin IIb 12 h; combination: 2-DG pretreatment 12 h then buforin IIb 12 h; lactate in medium
Protocol: as §2

[12] = tested on: DU145 cells; experiment: Mitochondrial membrane potential (JC-1, flow cytometry); format: cell-based, human; conditions: for effect on Δψm (JC-1 green/red fluorescence ratio, words): 2 mM 2-DG, 2 μM buforin IIb 12 h
Protocol: The JC-1 Assay Kit was used to measure changes in mitochondrial membrane potential. Briefly, cells (5 × 10^5 cells/mL) were seeded into 6-well plates and treated with 2-DG (2 mM) for 12 h, then treated with or without buforin IIb (2 μM) for 12 h. DU145 cells were collected, washed in PBS, and incubated with 10 μg/mL JC-1 for 30 min. The cells were then collected by centrifugation and analyzed by flow cytometry. The red fluorescence indicated JC-1 aggregates, whereas green fluorescence indicated JC-1 monomers. Aggregated JC-1 (red fluorescence) indicates a high membrane potential, whereas monomer JC-1 (green fluorescence) indicates a membrane collapse.

[13] = tested on: prostate cancer cell line DU145; conditions: 1 mM 2-DG alone; ref 28 (Sahra et al. 2010); cited from earlier work
Excerpt: Glycolysis inhibitors have been studied extensively in recent years as a group of compounds with a potential anticancer activity. This is associated with increasing knowledge of metabolic disorders in cancer cells. One difference between cancer cells and normal cells is that the metabolism of cancer cells is reprogrammed to generate energy from aerobic glycolysis instead of oxidative phosphorylation, which affects mitochondrial function. One effective anticancer strategy is to combine mitochondrial and antiglycolytic drugs with different molecular targets, which may elicit synergistic e ...

O=CC[C@@H](O)[C@H](O)[C@H](O)CO [2-DG, 2-Deoxy-D-glucose]
%G2 ([1]; PBS 8.15): 7.2% | %S ([1]; PBS 38.08): 28.05% | S/G2 population [1]: 35.25% | G0/G1 population (%G1) [1]: 64.76% | effect on DU145 cell viability / growth ([2]; 2 mM 2-DG alone): did not inhibit DU145 cell growth significantly; also recorded: no significant effect on cell viability and apoptosis | IC50 ([2]; Homo sapiens, DU-145, CCK8 assay, 24 h, data not shown): 12 mM | hemolytic activity [3]: no hemolytic activity | inhibition at 2000 µM ([4]; Homo sapiens, DU-145, 2-DG 2 mM, read-out: inhibition of cell proliferation (rate)): 14% | ROS, H2DCFDA fluorescence intensity [5]: no effect on H2DCFDA fluorescence intensity | activity at 2000 µM ([6]; Homo sapiens, DU-145, 2 mM 2-DG 24 h, read-out: ATP levels, % of control levels): 70% | cytotoxicity against WPMY-1 cells ([7]; 2 mM 2-DG and 2 μM buforin IIb alone or in combination): no significant cytotoxicity | inhibition of viability of WPMY-1 cells ([7]; 4 mM 2-DG and 4 μM buforin IIb alone or in combination): No significant inhibition of viability | effect on viability of WPMY-1 cells ([7]; all tested concentrations): no effect on the viability | tumor growth inhibition rate [8]: 39.53% | induction of apoptosis ([9]; 2-DG alone (2 mM) compared with PBS control): did not induce DU145 cell apoptosis | Bcl-2 family protein levels [10]: downregulated Bcl-2 and upregulated Bak | cytochrome c and caspase 3 [10]: did not promote the release of cytochrome c from mitochondria or activate caspase 3 | lactate production, % of that in the control [11]: approximately 60% | effect on Δψm (JC-1 green/red fluorescence ratio, words) [12]: no effect on Δψm | effect on mitochondrial Δψm and ROS production ([12]; 2-DG (2 mM) alone): no effect on mitochondrial Δψm and ROS production | effect on cell viability and apoptosis in DU145 cells [13]: almost no effect on cell viability and apoptosis

Buforin IIb
S/G2 population [1]: 30.06% | G0/G1 population (%G1) [1]: 69.94% | inhibition of DU145 cell viability ([2]; 2 μM buforin IIb alone or with 2 mM 2-DG, 24 h, CCK-8): 25% | inhibition of cell proliferation (rate) ([4]; 2-DG 2 mM): 53% | ATP levels, % of control levels ([6]; 2 mM 2-DG 24 h): 30% | apoptosis ([9]; 2 μM buforin IIb alone or with 2 mM 2-DG, 24 h, Annexin V/PI FACS): 21.45% | Bcl-2 family protein levels [10]: downregulated Bcl-2 and upregulated Bak | cytochrome c and caspase 3 [10]: increased cytochrome c levels and induced the cleavage of procaspase 3 | lactate production, % of that in the control [11]: ~80% | effect on Δψm (JC-1 green/red fluorescence ratio, words) [12]: increased the green/red fluorescence ratio
